# From patent US5547962A, “5-amino-8-methyl-7-pyrrolidinylquinoline-3-carboxylic acid derivative” (priority 1993, dated 1996)
# Where a name gives a salt, the structure may show the parent alone.
# Columns and labels:
# CHL cells = test: Chromosomal aberration test with a Chinese hamster lung cell line (CHL); format: cell-based; details: for Chromosomal aberration: CHL cells, 100 μg/ml
# Experimental: The chromosomal aberration test was conducted with a Chinese hamster lung cell line (CHL). 2-(2-Furyl)-3-(5-nitro-2-furyl)acrylamide was used as a positive control. Cells treated with the test compounds were cultured for 6 h at 37° C. in 5% CO2 -humidified air. Following the 6 h treatment the cells were washed. Fresh medium was added to the washed cells and they were cultured for a further 18 h. Colcemide was added to the cultures 2 h before the fixation of chromosome preparation, in order to collect metaphase cells.
# Male Hartley guinea pigs = format: in vivo; details: 10 mg/kg i.v.
# Experimental: Male Hartley guinea pigs were intravenously administered test compounds at a dose of 10 mg/kg, and immediately exposed to UVA on their backs for 90 minutes.
# K. pneumoniae HNR858 = test: Antibacterial activity, MIC by agar dilution; format: cell-based; details: Klebsiella pneumoniae, clinically isolated strain, gram -
# From the text: (§1) The strains employed were as follows:
# (§2) Klebsiella pneumoniae (K. pneumoniae)
# K. pneumoniae HNR828 = test: Antibacterial activity, MIC by agar dilution; format: cell-based; details: Klebsiella pneumoniae, clinically isolated strain, gram -
# From the text: as §1, §2
# K. pneumoniae PCI-602 = test: Antibacterial activity, MIC by agar dilution; format: cell-based; details: Klebsiella pneumoniae, PCI602; laboratory standard strain, gram -
# From the text: as §1, §2
# K. pneumoniae HNR869 = test: Antibacterial activity, MIC by agar dilution; format: cell-based; details: Klebsiella pneumoniae, clinically isolated strain, gram -
# From the text: as §1, §2
# E. cloacae HNR1946 = test: Antibacterial activity, MIC by agar dilution; format: cell-based; details: Enterobacter cloacae, clinically isolated strain, gram -
# From the text: as §1
# (§3) Enterobacter cloacae (E. cloacae)
# E. cloacae 963 = test: Antibacterial activity, MIC by agar dilution; format: cell-based; details: Enterobacter cloacae, laboratory standard strain, gram -
# From the text: as §1, §3
# E. cloacae HNR1941 = test: Antibacterial activity, MIC by agar dilution; format: cell-based; details: Enterobacter cloacae, clinically isolated strain, gram -
# From the text: as §1, §3
# E. cloacae HNR1939 = test: Antibacterial activity, MIC by agar dilution; format: cell-based; details: Enterobacter cloacae, clinically isolated strain, gram -
# From the text: as §1, §3
# S. marcescens HNR1544 = test: Antibacterial activity, MIC by agar dilution; format: cell-based; details: Serratia marcescens, clinically isolated strain, gram -
# From the text: as §1
# (§4) Serratia marcescens (S. marcescens)
# S. marcescens IAM 1184 = test: Antibacterial activity, MIC by agar dilution; format: cell-based; details: Serratia marcescens, IAM1184; laboratory standard strain, gram -
# From the text: as §1, §4
# S. marcescens HNR1767 = test: Antibacterial activity, MIC by agar dilution; format: cell-based; details: Serratia marcescens, clinically isolated strain, gram -
# From the text: as §1, §4
# S. marcescens HNR1792 = test: Antibacterial activity, MIC by agar dilution; format: cell-based; details: Serratia marcescens, clinically isolated strain, gram -
# From the text: as §1, §4
# E. coli NIHJ JC-2 = test: Antibacterial activity, MIC by agar dilution; format: cell-based; details: Escherichia coli, NIHJJC2; laboratory standard strain, gram -
# From the text: as §1
# Escherichia coli (E. coli)
# A. calcoaceticus HNR916 = test: Antibacterial activity, MIC by agar dilution; format: cell-based; details: Acinetobacter calcoaceticus, clinically isolated strain, gram -
# From the text: as §1
# (§5) Acinetobacter calcoaceticus (A. calcoaceticus)
# A. calcoaceticus HNR904 = test: Antibacterial activity, MIC by agar dilution; format: cell-based; details: Acinetobacter calcoaceticus, clinically isolated strain, gram -
# From the text: as §1, §5
# A. calcoaceticus HNR939 = test: Antibacterial activity, MIC by agar dilution; format: cell-based; details: Acinetobacter calcoaceticus, clinically isolated strain, gram -
# From the text: as §1, §5
# E. faecalis HPC984 = test: Antibacterial activity, MIC by agar dilution; format: cell-based; details: Enterococcus faecalis, clinically isolated strain, gram +
# From the text: as §1
# (§6) Enterococcus faecalis (E. faecalis)
# E. faecalis HPC948 = test: Antibacterial activity, MIC by agar dilution; format: cell-based; details: Enterococcus faecalis, clinically isolated strain, gram +
# From the text: as §1, §6
# E. faecalis HPC975 = test: Antibacterial activity, MIC by agar dilution; format: cell-based; details: Enterococcus faecalis, clinically isolated strain, gram +
# From the text: as §1, §6
# S. aureus HPC308 = test: Antibacterial activity, MIC by agar dilution; format: cell-based; details: Staphylococcus aureus, clinically isolated strain, gram +
# From the text: as §1
# (§7) Staphylococcus aureus (S. aureus)
# S. aureus HPC527 = test: Antibacterial activity, MIC by agar dilution; format: cell-based; details: Staphylococcus aureus, clinically isolated strain, gram +
# From the text: as §1, §7
# S. aureus HPC292 = test: Antibacterial activity, MIC by agar dilution; format: cell-based; details: Staphylococcus aureus, clinically isolated strain, gram +
# From the text: as §1, §7
# S. aureus FDA 209P JC-1 = test: Antibacterial activity, MIC by agar dilution; format: cell-based; details: Staphylococcus aureus, FDA209P; laboratory standard strain, gram +
# From the text: as §1, §7
# male ICR mice = test: Convulsions, intraperitoneal (i.p.) administration with fenbufen
# Experimental: Thirty minutes later, they were injected intraperitoneally with the test compounds at a dose of 100 mg/kg. Thereafter, the onset of convulsions was recorded.
# Male Wistar rats = test: Convulsions, intracerebroventricular (i.c.v.) administration with fenbufen; format: in vivo, rat; details: 20 μg i.c.v.
# Experimental: Male Wistar rats weighing 180-220 g were anesthetized with sodium pentobarbital (45 mg/kg, i.p.) and fixed in a stereotaxic apparatus. For the intracerebroventricular injection, a 0.6 mm diameter stainless steel guide cannula was implanted in each rat, being positioned 1.5 mm above the left lateral cerebroventricle (A: 6.2, R: 1.0, H: +1.0), according to the atlas of De Groot (1959). The guide cannula was fixed with dental cement on the skull and it was closed with a 0.3 mm diameter stainless steel stylet. To prevent infection, 10,000 units of potassium penicillin G were injected intramuscularly. The rats were allowed a few days to recover from the surgery.
# For the measurement of convulsions, 30 min after intraperitoneal injection of 50 mg/kg of fenbufen, 20 μg of the test compounds was given through a 0.3 mm diameter of stainless steel cannula with a polyethylene catheter, which was 1.5 mm longer than the guide cannula in order to be inserted into the […] cerebroventricle (H: +1.0). […] The position of the intracerebroventricular cannula was confirmed by the injection of 10 μl of 1% evans blue followed by sectioning of the brain of each rat which had been used in the experiment.
compound,measurement,setting,value
"Nc1c(F)c(N2CC[C@H](N)C2)cc2c1c(=O)c(C(=O)O)cn2C1CC1 [Reference Compound E, 5-amino-7-((S)-3-amino-1-pyrrolidinyl)-1-cyclopropyl-6-fluoro-1,4-dihydro-4-oxoquinoline-3-carboxylic acid]","toxicity (chromosomal aberration), in words",CHL cells,observed
same,"phototoxicity, in words",Male Hartley guinea pigs; UVA,no phototoxicity
same,death of guinea pigs,Male Hartley guinea pigs; phototoxicity test,death of two guinea pigs out of five
"N[C@H]1CCN(c2cc3c(cc2F)c(=O)c(C(=O)O)cn3C2CC2)C1 [Reference Compound D, 7-((S)-3-amino-1-pyrrolidinyl)-1-cyclopropyl-6-fluoro-1,4-dihydro-4-oxoquinoline-3-carboxylic acid]",Chromosomal aberration,CHL cells; Table 1,- (<10%)
same,Chromosomal aberration,CHL cells; Table 2,- (<10%)
"Cc1c(N2C[C@@H](N)C(C)(C)C2)c(F)c(N)c2c(=O)c(C(=O)O)cn(C3CC3)c12 [Example 16, 5-Amino-7-((S)-3-amino-4,4-dimethyl-1-pyrrolidinyl)-1-cyclopropyl-6-fluoro-1,4-dihydro-8-methyl-4-oxoquinoline-3-carboxylic acid]",MIC,K. pneumoniae HNR858,0.39 µg/mL
same,MIC,K. pneumoniae HNR828,12.5 µg/mL
same,MIC,K. pneumoniae PCI-602,0.003 µg/mL
same,MIC,K. pneumoniae HNR869,3.13 µg/mL
same,MIC,E. cloacae HNR1946,0.39 µg/mL
same,MIC,E. cloacae 963,0.05 µg/mL
same,MIC,E. cloacae HNR1941,12.5 µg/mL
same,MIC,E. cloacae HNR1939,0.39 µg/mL
same,MIC,S. marcescens HNR1544,0.1 µg/mL
same,MIC,S. marcescens IAM 1184,0.39 µg/mL
same,MIC,S. marcescens HNR1767,25 µg/mL
same,MIC,S. marcescens HNR1792,6.25 µg/mL
same,MIC,E. coli NIHJ JC-2,0.05 µg/mL
same,MIC,A. calcoaceticus HNR916,0.025 µg/mL
same,MIC,A. calcoaceticus HNR904,6.25 µg/mL
same,MIC,A. calcoaceticus HNR939,0.39 µg/mL
same,MIC,E. faecalis HPC984,0.2 µg/mL
same,MIC,E. faecalis HPC948,0.39 µg/mL
same,MIC,E. faecalis HPC975,1.56 µg/mL
same,MIC,S. aureus HPC308,0.39 µg/mL
same,MIC,S. aureus HPC527,0.025 µg/mL
same,MIC,S. aureus HPC292,1.56 µg/mL
same,MIC,S. aureus FDA 209P JC-1,0.025 µg/mL
"Cc1c(N2CCC(C)(N)C2)c(F)c(N)c2c(=O)c(C(=O)O)cn(C3CC3)c12 (centres unmarked) [Example 18, 5-Amino-7-(3-amino-3-methyl-1-pyrrolidinyl)-1-cyclopropyl-6-fluoro-1,4-dihydro-8-methyl-4-oxoquinoline-3-carboxylic acid]",MIC,K. pneumoniae HNR858,0.39 µg/mL
same,MIC,K. pneumoniae HNR828,6.25 µg/mL
same,MIC,K. pneumoniae PCI-602,0.006 µg/mL
same,MIC,K. pneumoniae HNR869,3.13 µg/mL
same,MIC,E. cloacae HNR1946,0.39 µg/mL
same,MIC,E. cloacae 963,0.05 µg/mL
same,MIC,E. cloacae HNR1941,12.5 µg/mL
same,MIC,E. cloacae HNR1939,0.39 µg/mL
same,MIC,S. marcescens HNR1544,0.1 µg/mL
same,MIC,S. marcescens IAM 1184,0.2 µg/mL
same,MIC,S. marcescens HNR1767,25 µg/mL
same,MIC,S. marcescens HNR1792,3.13 µg/mL
same,MIC,E. coli NIHJ JC-2,0.025 µg/mL
same,MIC,A. calcoaceticus HNR916,0.05 µg/mL
same,MIC,A. calcoaceticus HNR904,12.5 µg/mL
same,MIC,A. calcoaceticus HNR939,0.78 µg/mL
same,MIC,E. faecalis HPC984,0.2 µg/mL
same,MIC,E. faecalis HPC948,0.78 µg/mL
same,MIC,E. faecalis HPC975,3.13 µg/mL
same,MIC,S. aureus HPC308,0.78 µg/mL
same,MIC,S. aureus HPC527,0.05 µg/mL
same,MIC,S. aureus HPC292,6.25 µg/mL
same,MIC,S. aureus FDA 209P JC-1,0.025 µg/mL
"Cc1c(N2CCNCC2)c(F)c(N)c2c(=O)c(C(=O)O)cn(C3CC3)c12 [Reference Compound I, 5-amino-1-cyclopropyl-6-fluoro-1,4-dihydro-8-methyl-4-oxo-7-piperazinylquinoline-3-carboxylic acid hydrochloride]",Convulsions i.p.: number of animals with convulsions/number of animals tested,"male ICR mice; 100 mg/kg i.p., fenbufen 100 mg/kg orally",0/6
same,symptom of sedation,male ICR mice; i.p. convulsion test,All of mice used for the test had a symptom of sedation
same,"convulsions i.c.v., in words",Male Wistar rats; fenbufen,observed
same,Convulsions i.c.v.: number of animals with convulsions/number of animals tested,Male Wistar rats; fenbufen 50 mg/kg i.p.,3/3
same,Phototoxicity: number of animals with erythemas/number of animals tested,"Male Hartley guinea pigs; UVA 90 minutes, 24 h after irradiation",0/5
